Results: PMC8836143, “Primary Mode of Action of the Novel Sulfonamide Fungicide against Botrytis cinerea and Field Control Effect on Tomato Gray Mold” (International Journal of Molecular Sciences, 2022)
In brackets after ≈: the same amount, converted by molar mass.

What was measured:
[1] = tested on: intact mycelia of B. cinerea; assay: mycelial respiration (oxygen consumption of intact mycelia); format: cell-based, Botrytis cinerea; conditions: 25 °C; for R1 (mycelial oxygen uptake post addition of fungicide): R0 173.51; for inhibition at 50 µg/mL / inhibition at 100 µg/mL: Botrytis cinerea, read-out: IR (inhibition of respiration)
Method: Mycelial plugs of B. cinerea from 3 days old colony margins were transferred to conical flasks containing 150 mL of PDA liquid medium for shake culture (25 °C, 150 r/min). After 5 days, mycelia were washed three times with 50 mM potassium phosphate buffer (pH 7.2) and resuspended in 0.1 M phosphate buffer (pH 7.2), containing 2% glucose to afford mycelial suspension at a concentration of 50 mg fresh weight of mycelia per milliliter. The mycelial suspension was treated with 50 and 100 μg/mL of L13 and famoxadone, respectively. All measurements were carried out at 25 ± 1 °C. The ratio of the mycelial oxygen consumption was tested by oxygraphy (DW1, Hansatech Instruments Ltd., England), and the inhibition of respiration was calculated using the following formula:IR = (R0 − R1)/R0 × 100(1)
IR: inhibition of respiration (%); R0, R1: the ratio of mycelial oxygen uptake pre and post addition of fungicides (nmol O2/min/mg mycelia).

Wistar rats = assay: acute oral toxicity; format: in vivo
Method: (§1) The acute oral and dermal toxicity test on Wistar rats, eye and skin irritation test on rabbits, and Ames mutagenicity test were commissioned by the Institute for the Control of Chemical Toxicity in Tianjin. The bone marrow cell micronucleus assay and testis chromosomal aberration test of mice were commissioned by Tianjin Center for Disease Control and Prevention. All the toxicological tests were carried out according to the Toxicological Test Methods for Pesticide Registration (GB 15670-1995).
(§2) Based on the preliminary experiment, Horn’s method was used to determine the acute oral toxicity of L13. The dosage applied for rats was 464, 1000, 2150, and 4640 mg/kg·BW. For the acute dermal toxicity test, the dosage applied for rats was 2000 mg/kg·BW. For the eye and skin irritation test, rabbits with bodyweight from 2.5 to 3.0 kg were used, and 0.1 and […] of L13 was applied to the eyes and skin, respectively. For the Ames mutagenicity test, 0.05–1.0 mg per dish of L13 was applied, and fenaminosulf (50 μg/dish), 2-aminofluorene (20 μg/dish), and 1,8-dihydroxyanthraquinone (50 μg/dish) were used as the positive controls. For the mouse bone marrow cell micronucleus assay, the dosages applied were 165, 82.5, 41.3, and 8.3 mg/kg·BW, and cyclophosphamide (60 mg/kg·BW) was used as a positive control. […]

rabbits [2] = assay: eye irritation test; format: in vivo
Method: as §1, §2

[3] = tested on: B. cinerea resistant to carbendazim (HM-1); assay: greenhouse pot test on tomato, carbendazim-resistant strain HM-1; format: in vivo, Botrytis cinerea
Method: (§3) The B. cinerea strains, which had resistance to carbendazim (HM-1), diethofencarb (HM-2), and iprodione (HM-3) for greenhouse pot studies, were provided by the Institute of Vegetables and Flowers, Chinese Academy of Agricultural Sciences (Beijing, China).
(§4) The experiments were conducted in the greenhouse of the Institute of Vegetables and Flowers, Chinese Academy of Agricultural Sciences. The maximum and minimum temperatures of the greenhouse were 29 °C and 19 °C, respectively, and the average temperature was 24 °C. B. cinerea strains showing resistance to carbendazim, diethofencarb, and iprodione were cultivated on potato dextrose agar (PDA) plates for 4–5 d at room temperature. Tomato seeds (Ziyu) were sown in ceramic pots (300 mm in diameter) containing 0.6 kg of soil sterilized with formaldehyde (4–5 seeds for each pot). When plants were grown to the five-leaf stage, an aqueous solution of 25% L13 WP (at dilution multiples of 1000 and 2000 times) was sprayed preventatively on the plant surface. […] The severity of the disease was assessed according to a nine-grade classification at 7 d after inoculation, by which time the disease in the untreated control had fully developed.

B. cinerea on tomatoes = assay: field efficacy trials against tomato gray mold; format: in vivo, Botrytis cinerea; conditions: Yuncheng city; 225 g ai ha^−1; over 2 years
Method: The field efficacy trials of L13 against tomato gray mold were conducted in two locations of Yuncheng, Shanxi Province, and Gaocheng, Hebei Province. The experiments were conducted according to the National Agriculture Industry Standard of “Pesticide-guidelines for the field efficacy trials (I)-Fungicides against gray mold of vegetables” [38]. Tomato Jinpeng No. 1 was used as the experimental cultivar. There were six treatments in each trial, and the area of each plot was 5 × 3 m with four replications (24 plots). When tomato plants were grown to the five-leaf stage, an aqueous solution of L13 50% WP at a rate of 450 and 225 g ai ha^−1 was sprayed onto the plants using a hydraulic knapsack electric sprayer (CD-16B, Chaoda Instrument Co., Ltd., Taizhou, China) with a single cone nozzle operating at a typical working pressure 0.3 MPa. Iprodione 50% WP, or iprodione 25% SC at a rate of 225 and 562.5 g ai ha^−1 were used as positive controls. Three applications were conducted at an interval of 7 d. The disease was assessed according to a nine-grade classification 7 d after the last application.

[4] = tested on: B. cinerea resistant to iprodione (HM-3); assay: greenhouse pot test on tomato, iprodione-resistant strain HM-3; format: in vivo, Botrytis cinerea
Method: as §3, §4

B. cinerea hyphae = assay: SEM and TEM of mycelial morphology and ultrastructure; format: cell-based, Botrytis cinerea; conditions: 3 days
Method: B. cinerea mycelial tips (5 mm) from the margins of the actively growing colony on the PDA medium amended with 0, 50, and 100 μg/mL of L13 were cut down after being cultured for 3 days. Then the mycelial tips were treated with 4% glutaraldehyde at 4 °C, then rinsed with 0.1 M phosphate buffer (pH 7.3) and fixed with 1% w/v osmium tetraoxide solution. After being rinsed with 0.1 M phosphate buffer three times, the mycelium block was dehydrated using a series of acetone solutions in the order of concentration: 30%, 50%, 70%, 80%, 90%, and anhydrous acetone. The processes of drying at a critical point, mounting, and gold spraying were completed at last and examined in a scanning electron microscope (S-3400N, Hitachi, Nissei Sanyo, Tokyo, apan) with an accelerating voltage of 18–20 kV.
The mycelial blocks were prepared according to the method given in Section 2.3. After dehydrating and embedding in Epon 112, thin sections were cut and double-stained with uranyl acetate and lead citrate. The grids were examined with a JEOL-1230 (JEOL, Tokyo, Japan) transmission electron microscope.

[5] = tested on: B. cinerea resistant to diethofencarb (HM-2); assay: greenhouse pot test on tomato, diethofencarb-resistant strain HM-2; format: in vivo, Botrytis cinerea
Method: as §3, §4

B. cinerea = tested on: B. cinerea; parameters: method as in PMID 18331796; conditions: cited from earlier work
mutagenesis test = assay: mutagenesis test
Method: as §1, §2

B. cinerea mycelia = assay: mycelial electrolyte leakage (conductivity of mycelia suspension); format: cell-based, Botrytis cinerea; conditions: 50 μg/mL; for conductivity of mycelia suspension compared with control mycelia: all treatment times 0-100 h
Method: Mycelial discs (5 mm in diameter) of B. cinerea grown on PDA plates were cut from the colony’s margins and placed in PDA liquid medium with 200 r/min shaking for 3 days. The mycelia in the culture medium were collected and washed three times by sterile distilled water and subsequently, filtered and weighed. A stock solution of L13 and commercial fungicide procymidone as a positive control were diluted with sterile distilled water to 50 μg/mL, respectively. After adding 1.0 g of fresh mycelia into different solutions mentioned above, the conductivities of the solutions were measured using the DDS-11C model conductivity detector at 0, 1, 3, 5, 24, 28, 40, 48, 52, 64, 68, 72, 76, 88, 92, and 100 h after treatment. The experiment was repeated twice with three replicates per treatment.

[6] = tested on: intact mycelia of B. cinerea; parameters: method as in earlier work; conditions: cited from earlier work
rabbits [7] = assay: skin irritation test; format: in vivo
Method: as §1, §2

[8] = dilution multiple 1000, 187.5 g.ai ha^−1

With `C[C@@]1(c2ccc(Oc3ccccc3)cc2)OC(=O)N(Nc2ccccc2)C1=O` (racemic) [Famoxadone, famoxadone, reference compound] the “R1 (mycelial oxygen uptake post addition of fungicide)” value ([1]; 50 μg/mL) was 115.99 nmol O2/g/min, the “R1 (mycelial oxygen uptake post addition of fungicide)” value ([1]; 100 μg/mL) was 68.79 nmol O2/g/min and the inhibition at 50 µg/mL ([1]; 50 μg/mL) was 33.2%. For the same compound, the inhibition at 100 µg/mL ([1]; 100 μg/mL) was 60.4%.
In the case of `O=C1CCCCC1S(=O)(=O)Nc1ccc(Cl)cc1C(F)(F)F` (stereo not drawn) [L13, N-(2-trifluoromethyl-4-chlorphenyl)-2-oxocyclohexyl sulfonamide], the Carcinogenesis (carcinogenesis test) is reported as “Negative”, the “Acute oral LD50” value (Wistar rats; female) is reported as 2150 mg/kg·BW and the “Acute oral LD50” value (Wistar rats; male) is reported as 1470 mg/kg·BW. For the same compound, the Eye irritation (rabbits [2]) was “No irritation”, the “Control Effect” value [3, 8] was 81.36% and the “control effect against B. cinerea on tomatoes” value (B. cinerea on tomatoes) was 72–76%. For the same compound, the “Control Effect” value [4, 8] was 78.27%, the “TEM ultrastructure of hyphae” value (B. cinerea hyphae; PDA with 50 μg/mL) was “cell wall exhibited a decomposition trend” and the “TEM ultrastructure of hyphae” value (B. cinerea hyphae; PDA with 100 μg/mL) was “cell wall decomposition”. The “Control Effect” value [5, 8] was 92.61%, the “EC50 against B. cinerea” value (B. cinerea) was 2.12 µg/mL (≈ 5.96 µM) and the Mutagenesis (mutagenesis test) was “Negative”. For the same compound, the “electrolyte leakage compared with positive control” value (B. cinerea mycelia) was “more significant electrolyte leakage from hyphae than procymidone”, the “conductivity of mycelia suspension compared with control mycelia” value (B. cinerea mycelia) was “greatly increased” and the Teratogenesis (teratogenesis test) was “Negative”. The “content of DNA and polysaccharide in intact mycelia” value [6] was “reduce the content of the DNA and polysaccharide”, the Skin irritation (rabbits [7]) was “No irritation” and the “R1 (mycelial oxygen uptake post addition of fungicide)” value ([1]; 50 μg/mL) was 169.93 nmol O2/g/min. For the same compound, the “R1 (mycelial oxygen uptake post addition of fungicide)” value ([1]; 100 μg/mL) was 143.48 nmol O2/g/min, the inhibition at 50 µg/mL ([1]; 50 μg/mL) was 2.15% and the inhibition at 100 µg/mL ([1]; 100 μg/mL) was 17.4%.
With `COC(=O)Nc1nc2ccccc2[nH]1` [carbendazim, reference compound] the “Control Effect” value ([3]; dilution multiple 500, 750 g.ai ha^−1) was 29.00%.
With `CCOc1ccc(NC(=O)OC(C)C)cc1OCC` [diethofencarb, reference compound] the “Control Effect” value ([5]; dilution multiple 1400, 267.9 g.ai ha^−1) was 76.36%.
For `CC(C)NC(=O)N1CC(=O)N(c2cc(Cl)cc(Cl)c2)C1=O` [iprodione, reference compound], the “Control Effect” value ([4]; dilution multiple 1000, 375 g.ai ha^−1) was 2.36%.
In the case of `CC12CC1(C)C(=O)N(c1cc(Cl)cc(Cl)c1)C2=O` (stereo not drawn) [procymidone, reference compound], the “EC50 against B. cinerea” value (B. cinerea) is listed as 2.45 µg/mL (≈ 8.62 µM) and the “conductivity of mycelia suspension compared with control mycelia” value (B. cinerea mycelia) is listed as “greatly increased”.
